In US9828350B2, “5,6-dihydro-2H-[1,4]oxazin-3-yl-amine derivatives useful as inhibitors of beta-secretase (BACE)” (Janssen Pharmaceutica NV, priority 2010, dated 2017):

How the values were obtained:
Abeta 1-42 = assay: Cellular αLisa assay in SKNBE2 cells, Abeta 1-42; format: cell-based, human; conditions: incubated for 18 hours; for IC50: Homo sapiens, SKNBE2, 18 h, read-out: Cellular αLisa assay in SKNBE2 cells Abeta 42 pIC50 (converted)
How it was run: (§1)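 Secreted Abeta levels were measured by sandwich αLisa, pairing biotin-AbN/25 donor beads with Ab4G8 acceptor beads for total Abeta or cAb42/26 for Abeta 1-42, read at 615 nm after 650 nm excitation following 1 hour. Cells were SKNBE2 expressing wild-type hAPP695, exposed to compound for 18 hours.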

Abeta total = assay: Cellular αLisa assay in SKNBE2 cells, Abeta total; format: cell-based, human; conditions: incubated for 18 hours; for IC50: Homo sapiens, SKNBE2, 18 h, read-out: Cellular αLisa assay in SKNBE2 cells Abetatotal pIC50 (converted)
How it was run: as §1

[1] = biological target: recombinant BACE1 protein (Homo sapiens, UniProt P56817); assay: Biochemical FRET based assay; conditions: recombinant BACE1 1 μg/ml, 120 minutes at room temperature, pH 5.0; for IC50: read-out: Biochemical FRET based assay pIC50 (converted)
Source text: Biochemical FRET Based Assay
This assay is a Fluorescence Resonance Energy Transfer Assay (FRET) based assay. The substrate for this assay is an APP derived 13 amino acids peptide that contains the ‘Swedish’ Lys-Met/Asn-Leu mutation of the amyloid precursor protein (APP) beta-secretase cleavage site. This substrate also contains two fluorophores: (7-methoxycoumarin-4-yl) acetic acid (Mca) is a fluorescent donor with excitation wavelength at 320 nm and emission at 405 nm and 2,4-Dinitrophenyl (Dnp) is a proprietary quencher acceptor. […] Upon cleavage by BACE1, the fluorophore Mca is separated from the quenching group Dnp, restoring the full fluorescence yield of the donor. The increase in fluorescence is linearly related to the rate of proteolysis.
Briefly in a 384-well format recombinant BACE1 protein in a final concentration of 1 μg/ml is incubated for 120 minutes at room temperature with […] substrate in incubation buffer (40 mM Citrate buffer pH 5.0, 0.04% PEG, 4% DMSO) in the absence or presence of compound. Next the amount of proteolysis is directly measured by fluorescence measurement at T=0 and T=120 (excitation at 320 nm and emission at 405 nm). Results are expressed in RFU (Relative Fluorescence Units), as difference between T120 and TO.

recombinant BACE1 protein, sequence (P56817 46-501): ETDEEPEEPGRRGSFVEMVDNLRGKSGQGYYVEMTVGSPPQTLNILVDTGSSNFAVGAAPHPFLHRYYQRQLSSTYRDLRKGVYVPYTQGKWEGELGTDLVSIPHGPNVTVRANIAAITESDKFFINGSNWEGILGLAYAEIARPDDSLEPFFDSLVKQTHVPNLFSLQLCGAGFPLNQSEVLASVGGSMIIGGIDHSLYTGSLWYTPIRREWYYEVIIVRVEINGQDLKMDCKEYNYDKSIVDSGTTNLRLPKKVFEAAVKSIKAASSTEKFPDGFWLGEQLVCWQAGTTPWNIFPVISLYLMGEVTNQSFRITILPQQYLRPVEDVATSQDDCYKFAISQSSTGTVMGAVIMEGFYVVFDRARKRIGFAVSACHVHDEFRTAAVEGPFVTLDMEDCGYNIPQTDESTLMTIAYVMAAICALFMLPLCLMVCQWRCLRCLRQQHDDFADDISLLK

| SMILES | Cellular αLisa assay in SKNBE2 cells Abeta 42 pIC50 (Abeta 1-42) | Cellular αLisa assay in SKNBE2 cells Abetatotal pIC50 (Abeta total) | IC50 [1] [nM] | Biochemical FRET based assay pIC50 [1] | IC50 (Abeta 1-42) [nM] | IC50 (Abeta total) [nM] |
| --- | --- | --- | --- | --- | --- | --- |
| CC1(c2cccc(NC(=O)c3ccncn3)c2)N=C(N)COC1(F)C(F)(F)F (single isomer, unassigned) [Compound 190] | 5.2 | 5.25 | > 30200 |  |  |  |
| COc1cncc(-c2ccc(F)c(C3(C)COCC(N)=N3)c2)c1 (racemic) [Compound 63] | 6.94 | 6.9 |  | 5.46 |  |  |
| CC1(c2cccc(NC(=O)c3ccc(C#N)cn3)c2)COCC(N)=N1 (single isomer, unassigned) [Compound 49] | 5.68 | 5.66 |  | 4.6 |  |  |
| Cc1cncc(-c2cccc(C3(C)COCC(N)=N3)c2)c1 (racemic) [Compound 11] | 6.2 | 6.33 |  | 4.84 |  |  |
| CCC1(c2cc(-c3cncnc3)ccc2F)N=C(N)COC1(F)C(F)(F)F (stereo not drawn) [Compound 302] | <5 | <5 | > 30200 |  |  |  |
| Cc1cc(Cl)cnc1C(=O)Nc1ccc(F)c([C@]2(C)COCC(N)=N2)c1 [Compound 143] | 8.35 | 8.36 |  | 7.48 |  |  |
| COc1cncc(-c2cccc(C3(C)COC4(CC4)C(N)=N3)c2)c1 (racemic) [Compound 16, rac-6-[3-(5-methoxypyridin-3-yl)phenyl]-6-methyl-4-oxa-7-azaspiro[2.5]oct-7-en-8-amine] |  |  | 2190 |  | 389 | 355 |
| C[C@]1(c2cc(-c3cncnc3)c(F)cc2F)COCC(N)=N1 [Compound 155] | <5 | <5 |  | <4.52 |  |  |
| C[C@@]1(c2cccc(-c3cccc(C#N)c3)c2)COCC(N)=N1 [Compound 51] | 6.61 | 6.59 |  | 5.41 |  |  |
| C[C@]1(c2cc(NC(=O)c3ncc(C#N)cc3Cl)ccc2F)N=C(N)CO[C@]1(F)C(F)(F)F [Compound 306] |  |  | 36.3 |  | 6.92 | 7.41 |
| COc1cnc(C(=O)Nc2cccc(C3(C)N=C(N)COC3F)c2)cn1 (stereo not drawn) [Compound 80] |  |  | 97.7 |  | 60.3 | 53.7 |
| CC1(c2cccc(-c3cncc(C#N)c3)c2)N=C(N)COC1C(F)(F)F (single isomer, unassigned) [Compound 206] | <5 | <5 | > 30200 |  |  |  |
| COc1cnc(C(=O)Nc2cccc(C3(C)N=C(N)COC3(F)C(F)(F)F)c2)cn1 (single isomer, unassigned) [Compound 178] | 5.33 | 5.35 | 20000 |  |  |  |
| CC1(c2cc(NC(=O)c3ncc(Cl)cc3Cl)ccc2F)N=C(N)COC1F (stereo not drawn) [Compound 78] |  |  | 55 |  | 11.7 | 8.51 |
| N#Cc1cnc(C(=O)Nc2cccc([C@@]3(C4CC4)N=C(N)CO[C@H]3C(F)(F)F)c2)c(Cl)c1 [Compound 291] |  |  | 32.4 |  | 5.62 | 4.9 |
| CC1(c2cccc(NC(=O)c3ccc(Cl)cn3)c2)N=C(N)COC1F (single isomer, unassigned) [Compound 90] | 7.76 | 7.76 |  | 6.37 |  |  |
| C[C@]1(c2cccc(NC(=O)c3ncc(C#N)cc3Cl)c2)N=C(N)CO[C@]1(F)C(F)(F)F [Compound 245] |  |  | 21.9 |  | 6.61 | 5.89 |
| Cc1cccnc1C(=O)Nc1ccc(F)c(C2(C)COCC(N)=N2)c1 (stereo not drawn) [Compound 30] | 7.57 | 7.66 |  | 6.05 |  |  |
| CC1(c2cccc(NC(=O)c3ccc(Cl)cn3)c2)N=C(N)COC1F (single isomer, unassigned) [Compound 122] | 5.19 | 5.04 |  | <4.52 |  |  |
| CCC1(c2cc(NC(=O)c3cnc(OC)cn3)ccc2F)N=C(N)COC1(F)C(F)(F)F (stereo not drawn) [Compound 300] | 5.91 | 5.93 | 1550 |  |  |  |

| SMILES | Cellular αLisa assay in SKNBE2 cells Abeta 42 pIC50 (Abeta 1-42) | Cellular αLisa assay in SKNBE2 cells Abetatotal pIC50 (Abeta total) | IC50 [1] [nM] | Biochemical FRET based assay pIC50 [1] | IC50 (Abeta 1-42) [nM] | IC50 (Abeta total) [nM] |
| --- | --- | --- | --- | --- | --- | --- |
| COc1cncc(-c2cccc(C3(C)N=C(N)COC3C(F)(F)F)c2)c1 (stereo not drawn) [Compound 108] |  |  | 1290 |  | 120 | 120 |
| NC1=NC(c2cccc(NC(=O)c3ccc(Cl)cn3)c2)(C2CC2)COC1 (single isomer, unassigned) [Compound 196] | 6.92 | 6.95 | > 30200 |  |  |  |
| C[C@]1(c2cc(-c3cncc(F)c3)c(F)cc2F)N=C(N)CO[C@@H]1C(F)(F)F [Compound 316] |  |  | 1150 |  | 724 | 631 |
| CC1(c2cc(-c3cncc(C#N)c3)ccc2F)N=C(N)COC1C(F)(F)F (stereo not drawn) [Compound 239] |  |  | 1050 |  | 224 | 224 |
| C[C@]1(c2cc(NC(=O)c3ccncn3)ccc2F)N=C(N)CO[C@@]1(F)C(F)(F)F [Compound 182] |  |  | 550 |  | 209 | 204 |
| Cc1ccc(C(=O)Nc2ccc(F)c(C3(C)COCC(N)=N3)c2)nc1 (stereo not drawn) [Compound 24] | 7.77 | 7.73 |  | 6.77 |  |  |
| Cc1cc(Cl)cnc1C(=O)Nc1cccc([C@@]2(C3CC3)N=C(N)CO[C@@H]2F)c1 [Compound 297] |  |  | 38.9 |  | 19.1 | 17.4 |
| NC1=N[C@@](c2cc(NC(=O)c3ncc(Cl)cc3Cl)ccc2F)(C2CC2)[C@@H](F)OC1 [Compound 259] |  |  | 85.1 |  | 135 | 126 |
| CC1(c2cccc(-c3cccc(C#N)c3)c2)COCC(N)=N1 (racemic) [Compound 10] | 6. | 6.58 |  | 5.12 |  |  |
| COc1cncc(-c2cccc(C3(C)N=C(N)COC3F)c2)c1 (single isomer, unassigned) [Compound 89] | 6.51 | 6.67 | 5500 |  |  |  |
| CC1(c2cc(NC(=O)c3ccc(C(F)(F)F)nn3)ccc2F)COCC(N)=N1 (stereo not drawn) [Compound 26] | 6.72 | 6.74 |  | 5.67 |  |  |
| CC1(c2cccc(-c3cncnc3)c2)N=C(N)COC1F (single isomer, unassigned) [Compound 97] | 6.86 | 6.87 | 6170 |  |  |  |
| COc1cncc(-c2cccc(C3(C)N=C(N)COC3(F)C(F)(F)F)c2)c1 (single isomer, unassigned) [Compound 119] | 5.62 | 5.67 | 11200 |  |  |  |
| NC1=N[C@@](c2cccc(NC(=O)c3cnc(OCC(F)(F)F)cn3)c2)(C2CC2)[C@@H](F)OC1 [Compound 275] |  |  | 61.7 |  | 58.9 | 56.2 |
| COc1cncc(-c2cc(C3(C)COCC(N)=N3)c(F)cc2F)c1 (racemic) [Compound 66] | 6.92 | 7.0 |  | 5.69 |  |  |
| CC1(c2cc(NC(=O)c3ncc(Cl)cn3)ccc2F)COCC(N)=N1 (stereo not drawn) [Compound 144] | 7.27 | 7.38 |  | 7.11 |  |  |
| CC1(c2cc(NC(=O)c3ncc(Cl)cc3F)ccc2F)N=C(N)COC1F (stereo not drawn) [Compound 77] |  |  | 52.5 |  | 12 | 11.7 |
| NC1=NC(c2cccc(NC(=O)c3ccc(Cl)cn3)c2)(C2CC2)COC1 (single isomer, unassigned) [Compound 195] | 8.01 | 8.02 | 53.7 |  |  |  |
| C[C@]1(c2cccc(NC(=O)c3ncc(C#N)cc3Cl)c2)N=C(N)CO[C@@]1(F)C(F)(F)F [Compound 246] |  |  | 316 |  | 120 | 102 |
